Test results published in ChEMBL document CHEMBL1157550, “Incorporation of fluorinated phenylalanine generates highly specific inhibitor of proteasome's chymotrypsin-like sites” (J Med Chem, 2010).
Active and inactive are the calls of the source. The calls are words filed in the database; no cut-off is given here.

Assays:
[1] = molecular target: T1, Proteasome Macropain subunit MB1 (Homo sapiens) (UniProt P28074); experiment: Displacement of fluorescent labeled MV151 from 26S proteasome beta 5 in human HEK293 cell lysate assessed as residual activity at 100 uM after 1 hr by SDS-PAGE; format: cell-free
T1 sequence (whole entry): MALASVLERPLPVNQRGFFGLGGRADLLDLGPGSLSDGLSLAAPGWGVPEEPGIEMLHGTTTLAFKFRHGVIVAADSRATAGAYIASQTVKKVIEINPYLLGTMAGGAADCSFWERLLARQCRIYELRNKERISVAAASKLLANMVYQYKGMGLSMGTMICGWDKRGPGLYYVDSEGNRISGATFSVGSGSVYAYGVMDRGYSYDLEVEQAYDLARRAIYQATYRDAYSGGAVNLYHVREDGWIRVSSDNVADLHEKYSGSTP

[2] = molecular target: Proteasome subunit beta type-5 (Homo sapiens) (UniProt P28074); experiment: Inhibition of 26S proteasome beta 5 in human HEK293 cell lysate assessed as residual activity at 0.5 uM after 1 hr
[3] = molecular target: Proteasome Macropain subunit (Homo sapiens) (UniProt P49721); experiment: (§1) Inhibition of 26S proteasome beta 2 in human HEK293 cell lysate assessed as residual activity at […] after 1 hr; format: cell-free
[4] = molecular target: T2, Proteasome component C5 (Homo sapiens) (UniProt P20618); experiment: Inhibition of 26S proteasome beta 1 in human HEK293 cell lysate assessed as residual activity at 0.167 uM after 1 hr; format: cell-free
T2 sequence (whole entry): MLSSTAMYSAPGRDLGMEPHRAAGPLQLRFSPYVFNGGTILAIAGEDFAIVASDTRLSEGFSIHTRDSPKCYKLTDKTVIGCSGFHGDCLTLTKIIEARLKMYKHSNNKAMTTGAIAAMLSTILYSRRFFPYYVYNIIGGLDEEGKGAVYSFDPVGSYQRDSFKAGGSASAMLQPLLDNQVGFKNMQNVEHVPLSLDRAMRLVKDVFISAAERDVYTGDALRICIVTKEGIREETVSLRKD

[5] = molecular target: T2, Proteasome component C5 (Homo sapiens); experiment: Inhibition of 26S proteasome beta 1 in human HEK293 cell lysate assessed as residual activity at 0.5 uM after 1 hr; format: cell-free
[6] = molecular target: T2, Proteasome component C5 (Homo sapiens); experiment: Inhibition of 26S proteasome beta 1 in human HEK293 cell lysate assessed as residual activity at 0.002 uM after 1 hr; format: cell-free
[7] = molecular target: T2, Proteasome component C5 (Homo sapiens); experiment: (§2) Inhibition of 26S proteasome beta 1 in human HEK293 cell lysate assessed as residual activity at […] after 1 hr; format: cell-free
[8] = molecular target: T2, Proteasome component C5 (Homo sapiens); experiment: Inhibition of 26S proteasome beta 1 in human HEK293 cell lysate assessed as residual activity at 1.5 uM after 1 hr; format: cell-free
[9] = molecular target: Proteasome subunit beta type-5 (Homo sapiens) (UniProt P28074); experiment: Inhibition of 26S proteasome beta 5 in human HEK293 cell lysate assessed as residual activity at 0.167 uM after 1 hr
[10] = molecular target: T2, Proteasome component C5 (Homo sapiens); experiment: Inhibition of 26S proteasome beta 1 in human HEK293 cell lysate assessed as residual activity at 0.001 uM after 1 hr; format: cell-free
[11] = molecular target: T2, Proteasome component C5 (Homo sapiens); experiment: Inhibition of 26S proteasome beta 1 in human HEK293 cell lysate assessed as residual activity at 0.019 uM after 1 hr; format: cell-free
[12] = molecular target: Proteasome Macropain subunit (Homo sapiens) (UniProt P49721); experiment: Inhibition of 26S proteasome beta 2 in human HEK293 cell lysate assessed as residual activity at 0.002 uM after 1 hr; format: cell-free
[13] = molecular target: Proteasome subunit beta type-5 (Homo sapiens) (UniProt P28074); experiment: Inhibition of 26S proteasome beta 5 in human HEK293 cell lysate assessed as residual activity at 1.5 uM after 1 hr
[14] = molecular target: T1, Proteasome Macropain subunit MB1 (Homo sapiens); experiment: Displacement of fluorescent labeled MV151 from 26S proteasome beta 5 in human HEK293 cell lysate assessed as residual activity at 1 uM after 1 hr by SDS-PAGE; format: cell-free
[15] = molecular target: Proteasome subunit beta type-5 (Homo sapiens) (UniProt P28074); experiment: Inhibition of 26S proteasome beta 5 in human HEK293 cell lysate assessed as residual activity at […] after 1 hr
[16] = molecular target: T2, Proteasome component C5 (Homo sapiens); experiment: Inhibition of 26S proteasome beta 1 in human HEK293 cell lysate assessed as residual activity at 13.5 uM after 1 hr; format: cell-free
[17] = molecular target: Proteasome subunit beta type-5 (Homo sapiens) (UniProt P28074); experiment: Inhibition of 26S proteasome beta 5 in human HEK293 cell lysate assessed as residual activity at […] after 1 hr; remark: listed apart in the source
[18] = molecular target: T2, Proteasome component C5 (Homo sapiens); experiment: Displacement of fluorescent labeled MV151 from 26S proteasome beta 1 in human HEK293 cell lysate assessed as residual activity at 100 uM after 1 hr by SDS-PAGE; format: cell-free
[19] = molecular target: T2, Proteasome component C5 (Homo sapiens); experiment: Displacement of fluorescent labeled MV151 from 26S proteasome beta 1 in human HEK293 cell lysate assessed as residual activity at 1 uM after 1 hr by SDS-PAGE; format: cell-free
[20] = molecular target: Proteasome subunit beta type-5 (Homo sapiens) (UniProt P28074); experiment: Inhibition of 26S proteasome beta 5 in human HEK293 cell lysate assessed as residual activity at 0.019 uM after 1 hr
[21] = molecular target: Proteasome Macropain subunit (Homo sapiens) (UniProt P49721); experiment: Inhibition of 26S proteasome beta 2 in human HEK293 cell lysate assessed as residual activity at 0.019 uM after 1 hr; format: cell-free
[22] = molecular target: Proteasome Macropain subunit (Homo sapiens) (UniProt P49721); experiment: Inhibition of 26S proteasome beta 2 in human HEK293 cell lysate assessed as residual activity at 1.5 uM after 1 hr; format: cell-free
[23] = molecular target: Proteasome subunit beta type-5 (Homo sapiens) (UniProt P28074); experiment: Inhibition of 26S proteasome beta 5 in human HEK293 cell lysate assessed as residual activity at 0.001 uM after 1 hr
[24] = molecular target: Proteasome subunit beta type-5 (Homo sapiens) (UniProt P28074); experiment: Inhibition of 26S proteasome beta 5 in human HEK293 cell lysate assessed as residual activity at 0.006 uM after 1 hr
[25] = molecular target: Proteasome subunit beta type-5 (Homo sapiens) (UniProt P28074); experiment: Inhibition of 26S proteasome beta 5 in human HEK293 cell lysate assessed as residual activity at 0.002 uM after 1 hr
[26] = molecular target: T2, Proteasome component C5 (Homo sapiens); experiment: Inhibition of 26S proteasome beta 1 in human HEK293 cell lysate assessed as residual activity at 0.006 uM after 1 hr; format: cell-free
[27] = molecular target: Proteasome Macropain subunit (Homo sapiens) (UniProt P49721); experiment: Inhibition of 26S proteasome beta 2 in human HEK293 cell lysate assessed as residual activity at 13.5 uM after 1 hr; format: cell-free
[28] = molecular target: Proteasome Macropain subunit (Homo sapiens) (UniProt P49721); experiment: Inhibition of 26S proteasome beta 2 in human HEK293 cell lysate assessed as residual activity at 0.001 uM after 1 hr; format: cell-free
[29] = molecular target: Proteasome Macropain subunit (Homo sapiens) (UniProt P49721); experiment: Inhibition of 26S proteasome beta 2 in human HEK293 cell lysate assessed as residual activity at 0.167 uM after 1 hr; format: cell-free
[30] = molecular target: Proteasome subunit beta type-5 (Homo sapiens) (UniProt P28074); experiment: Inhibition of 26S proteasome beta 5 in human HEK293 cell lysate assessed as residual activity at 13.5 uM after 1 hr
[31] = molecular target: Proteasome Macropain subunit (Homo sapiens) (UniProt P49721); experiment: Inhibition of 26S proteasome beta 2 in human HEK293 cell lysate assessed as residual activity at 0.5 uM after 1 hr; format: cell-free
[32] = molecular target: T2, Proteasome component C5 (Homo sapiens); experiment: as §2; format: cell-free; remark: listed apart in the source
[33] = molecular target: Proteasome Macropain subunit (Homo sapiens) (UniProt P49721); experiment: Displacement of fluorescent labeled MV151 from 26S proteasome beta 2 in human HEK293 cell lysate assessed as residual activity at 1 uM after 1 hr by SDS-PAGE; format: cell-free
[34] = molecular target: Proteasome Macropain subunit (Homo sapiens) (UniProt P49721); experiment: Displacement of fluorescent labeled MV151 from 26S proteasome beta 2 in human HEK293 cell lysate assessed as residual activity at 100 uM after 1 hr by SDS-PAGE; format: cell-free
[35] = molecular target: Proteasome Macropain subunit (Homo sapiens) (UniProt P49721); experiment: as §1; format: cell-free; remark: listed apart in the source
[36] = molecular target: Proteasome Macropain subunit (Homo sapiens) (UniProt P49721); experiment: Inhibition of 26S proteasome beta 2 in human HEK293 cell lysate assessed as residual activity at 0.006 uM after 1 hr; format: cell-free
[37] = molecular target: T2, Proteasome component C5 (Homo sapiens); experiment: Displacement of fluorescent labeled MV151 from 26S proteasome beta 1 in human HEK293 cell lysate assessed as disappearance of band at 0.1 to 1 uM after 1 hr by SDS-PAGE; format: cell-free
[38] = molecular target: T1, Proteasome Macropain subunit MB1 (Homo sapiens); experiment: Displacement of fluorescent labeled MV151 from 26S proteasome beta 5 in human HEK293 cell lysate assessed as disappearance of band at 0.1 to 1 uM after 1 hr by SDS-PAGE; format: cell-free

Sequence of Proteasome Macropain subunit (Homo sapiens) (P49721 whole entry): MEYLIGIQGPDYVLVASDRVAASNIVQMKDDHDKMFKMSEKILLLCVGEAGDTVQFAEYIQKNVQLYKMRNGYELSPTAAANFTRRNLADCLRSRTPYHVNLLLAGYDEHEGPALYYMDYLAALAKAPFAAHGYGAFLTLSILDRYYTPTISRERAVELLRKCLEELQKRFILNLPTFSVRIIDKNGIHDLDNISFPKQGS

CC(C)C[C@H](NC(=O)[C@H](Cc1ccccc1)NC(=O)[C@H](Cc1cc(C(F)(F)F)cc(C(F)(F)F)c1)NC(=O)[C@H](Cc1ccccc1)N=[N+]=[N-])C(=O)[C@@]1(C)CO1
Activity [1]: 3% | Activity [2]: 20.5% | Activity [3]: 92.9% | Activity [4]: 85.7% | Activity [5]: 104% | Activity [6]: 92.8% | Activity [7]: 90.3% | Activity [8]: 104% | Activity [9]: 44.3% | Activity [10]: 112% | Activity [11]: 94.7% | Activity [12]: 104% | Activity [13]: 9.8% | Activity [14]: 78% | Activity [15]: 11% | Activity [16]: 61.3% | Activity [17]: 70.5% | Activity [18]: 80% | Activity [19]: 167% | Activity [20]: 94.4% | Activity [21]: 100% | Activity [22]: 113% | Activity [23]: 116% | Activity [24]: 93.5% | Activity [25]: 101% | Activity [26]: 96.9% | Activity [27]: 73.4% | Activity [28]: 118% | Activity [29]: 98.4% | Activity [30]: 5.1% | Activity [31]: 110% | Activity [32]: 116% | Activity [33]: 3.1% | Activity [34]: 128% | Activity [35]: 105% | Activity [36]: 100%

CC(C)C[C@H](NC(=O)[C@H](Cc1cc(C(F)(F)F)cc(C(F)(F)F)c1)NC(=O)c1cnccn1)B1OC2C[C@@H]3C[C@@H](C3(C)C)[C@]2(C)O1 (stereo partly drawn)
Activity [2]: 7.7% | Activity [3]: 63.7% | Activity [4]: 45.2% | Activity [5]: 17% | Activity [6]: 102% | Activity [37]: Active | Activity [7]: 1.1% | Activity [8]: 3.1% | Activity [38]: Active | Activity [9]: 8.8% | Activity [10]: 99.9% | Activity [11]: 92.3% | Activity [12]: 93.1% | Activity [13]: 5.4% | Activity [15]: 2.7% | Activity [16]: 0.5% | Activity [17]: 14.3% | Activity [20]: 21.2% | Activity [21]: 118% | Activity [22]: 78.5% | Activity [23]: 35.5% | Activity [24]: 23.3% | Activity [25]: 41.3% | Activity [26]: 93.2% | Activity [27]: 38.5% | Activity [28]: 100% | Activity [29]: 94.3% | Activity [30]: 0.7% | Activity [31]: 103% | Activity [32]: 79.1% | Activity [35]: 122% | Activity [36]: 109%
